Data set [1] in a line: Evaluation of solubility in water at 23° C. Conditions: stirred for 1 hour. It counts as physicochemical. Here is the method: Each of the compounds was added to water at 23° C. under the atmospheric pressure, the components were stirred for 1 hour, and the solubility of the compound in water was obtained. The solubility of the compound was evaluated based on the following criteria.
A: the solubility in water at 23° C. was 0.1 mass % or lower
B: the solubility in water at 23° C. was higher than 0.1 mass % and 1 mass % or lower
C: the solubility in water at 23° C. was higher than 1 mass %

Data set [2] in a line: Evaluation of absorption maximum and absorbance ratio (500 nm/λmax) in solution. Format: physicochemical. Particulars: for Second Near Infrared Absorbing Compound λmax (nm): absorption maximum of the second near infrared absorbing compound; for Absorbance Ratio (500 nm/λmax) / Absorption Maximum (nm): solvent chloroform; for λmax (nm) of Second Near Infrared Absorbing Compound: as listed in Table 58. The text has this: In this specification, “having an absorption maximum in a wavelength range of 650 to 1000 nm” denotes having a maximum absorbance in a wavelength range of 650 to 1000 nm in an absorption spectrum of the near infrared absorbing compound in a solution. Examples of a measurement solvent used for the measurement of the absorption spectra of the near infrared absorbing compound in the solution include chloroform, methanol, dimethyl sulfoxide, ethyl acetate, and tetrahydrofuran. In the case of a compound which is soluble in chloroform, chloroform is used as the measurement solvent. In the case of a compound which is not soluble in chloroform, methanol is used. In addition, In the case of a compound which is not soluble in chloroform and methanol, dimethyl sulfoxide is used.
Each of the compounds was dissolved in a measurement solvent shown in the following tables (concentration: 2.5×10^−6 mol/L) to measure an absorption spectrum (optical path length: 10 mm).
In addition, an absorbance ratio (500 nm/λmax) as a value obtained by dividing an absorbance at a wavelength of 500 nm by an absorbance at an absorption maximum was evaluated based on the following criteria.
A: the absorbance ratio (500 nm/λmax) was 0.04 or lower
B: the absorbance ratio (500 nm/λmax) was higher 0.04 and 0.08 or lower
C: the absorbance ratio (500 nm/λmax) was higher than 0.08

For `Cc1ccc2oc(/C(C#N)=c3/c4c(-c5cccc(OCC(CCC(C)CC(C)(C)C)C(C)CC(C)(C)C)c5)n(B(c5ccccc5)c5ccccc5)/c(=C(/C#N)c5nc6cc(C)ccc6o5)c4c(-c4cccc(OCC(CCC(C)CC(C)(C)C)C(C)CC(C)(C)C)c4)n3B(c3ccccc3)c3ccccc3)nc2c1` (centres unmarked) [II-186], the Solubility entry in data set [1] is “A (the solubility in water at 23 °C was 0.1 mass % or lower)”. For the same molecule, in data set [2], the “Second Near Infrared Absorbing Compound λmax (nm)” value is listed as 743 nm, the “Absorbance Ratio (500 nm/λmax)” value is listed as “A (the absorbance ratio (500 nm/λmax) was 0.04 or lower)” and the “Absorption Maximum (nm)” value stood at 748 nm.
Turning to `Cc1ccc2oc(/C(C#N)=c3/c4c(-c5cccc(OCC(CCC(C)CC(C)(C)C)C(C)CC(C)(C)C)c5)n(B5Oc6ccccc6O5)/c(=C(/C#N)c5nc6ccccc6s5)c4c(-c4cccc(OCC(CCC(C)CC(C)(C)C)C(C)CC(C)(C)C)c4)n3B3Oc4ccccc4O3)nc2c1` (centres unmarked) [IV-92], the Solubility entry in data set [1] was “A (the solubility in water at 23 °C was 0.1 mass % or lower)”. Moreover, in data set [2], the “Second Near Infrared Absorbing Compound λmax (nm)” value is 702 nm, the “λmax (nm) of Second Near Infrared Absorbing Compound” value is listed as 701 nm, the “Absorbance Ratio (500 nm/λmax)” value was “A (the absorbance ratio (500 nm/λmax) was 0.04 or lower)” and the “Absorption Maximum (nm)” value was 701 nm.
On to `CC(C)CCCCCCCC(CCCCCC(C)C)COc1cccc(-c2c3c(=C(C#N)c4nc5ccccc5s4)n(B(c4ccccc4)c4ccccc4)c(-c4cccc(OCC(CCCCCCCC(C)C)CCCCCC(C)C)c4)c3c(=C(C#N)c3nc4ccccc4s3)n2B(c2ccccc2)c2ccccc2)c1` (centres unmarked) [II-525], for which the Solubility result in data set [1] was “A (the solubility in water at 23 °C was 0.1 mass % or lower)”. Besides, in data set [2], the “Absorbance Ratio (500 nm/λmax)” value was “A (the absorbance ratio (500 nm/λmax) was 0.04 or lower)” and the “Absorption Maximum (nm)” value was 783 nm.
The like results for `CC(C)CCCCCCCC(CCCCCC(C)C)COc1ccc(-c2c3c(=C(C#N)c4cnc5cc(Cl)c(Cl)cc5n4)n(B(c4ccccc4)c4ccccc4)c(-c4ccc(OCC(CCCCCCCC(C)C)CCCCCC(C)C)cc4)c3c(=C(C#N)c3cnc4cc(Cl)c(Cl)cc4n3)n2B(c2ccccc2)c2ccccc2)cc1` (centres unmarked) [III-167] were, in that order, “A (the solubility in water at 23 °C was 0.1 mass % or lower)”, “A (the absorbance ratio (500 nm/λmax) was 0.04 or lower)” and 885 nm.
Take `CC(C)CCCCCCCC(CCCCCC(C)C)COc1cccc(-c2c3c(=C(C#N)c4nc5ccccc5s4)n(B4Oc5ccccc5O4)c(-c4cccc(OCC(CCCCCCCC(C)C)CCCCCC(C)C)c4)c3c(=C(C#N)c3nc4ccccc4s3)n2B2Oc3ccccc3O2)c1` (centres unmarked) [II-589]: the Solubility result in data set [1] was “A (the solubility in water at 23 °C was 0.1 mass % or lower)”. Besides, in data set [2], the “λmax (nm) of Second Near Infrared Absorbing Compound” value is on record as 719 nm, the “Absorbance Ratio (500 nm/λmax)” value is listed as “A (the absorbance ratio (500 nm/λmax) was 0.04 or lower)” and the “Absorption Maximum (nm)” value amounted to 719 nm.
Turning to `Cc1ccccc1B(c1ccccc1C)n1c(-c2ccc(OCC(CCCCCCCC(C)C)CCCCCC(C)C)cc2)c2c(=C(C#N)c3nc4ccccc4s3)n(B(c3ccccc3C)c3ccccc3C)c(-c3ccc(OCC(CCCCCCCC(C)C)CCCCCC(C)C)cc3)c2c1=C(C#N)c1nc2ccccc2s1` (centres unmarked) [II-541], in data set [1], the Solubility result is “A (the solubility in water at 23 °C was 0.1 mass % or lower)”. In data set [2], the “Absorbance Ratio (500 nm/λmax)” value is given as “A (the absorbance ratio (500 nm/λmax) was 0.04 or lower)” and the “Absorption Maximum (nm)” value turned out to be 772 nm.
The like results for `CC(C)CCCCCCCC(CCCCCC(C)C)COc1ccc(-c2c3c(=C(C#N)c4nc5ccccc5o4)n(B(c4ccccc4)c4ccccc4)c(-c4ccc(OCC(CCCCCCCC(C)C)CCCCCC(C)C)cc4)c3c(=C(C#N)c3nc4ccccc4o3)n2B(c2ccccc2)c2ccccc2)cc1` (centres unmarked) [II-9] were, in that order, “A (the solubility in water at 23 °C was 0.1 mass % or lower)”, “A (the absorbance ratio (500 nm/λmax) was 0.04 or lower)” and 740 nm.
The corresponding values for `Cc1ccc2oc(/C(C#N)=c3/c4c(-c5ccc(OCC(CCC(C)CC(C)(C)C)C(C)CC(C)(C)C)cc5)n(B(c5ccccc5C)c5ccccc5C)/c(=C(/C#N)c5nc6cc(C)ccc6o5)c4c(-c4ccc(OCC(CCC(C)CC(C)(C)C)C(C)CC(C)(C)C)cc4)n3B(c3ccccc3C)c3ccccc3C)nc2c1` (centres unmarked) [II-202] are “A (the solubility in water at 23 °C was 0.1 mass % or lower)”, “A (the absorbance ratio (500 nm/λmax) was 0.04 or lower)” and 737 nm.
For the molecule `CC(C)CCCCCCCC(CCCCCC(C)C)COc1cccc(-c2c3c(=C(C#N)c4nc5ccccc5o4)n(B(c4ccccc4)c4ccccc4)c(-c4cccc(OCC(CCCCCCCC(C)C)CCCCCC(C)C)c4)c3c(=C(C#N)c3nc4ccccc4o3)n2B(c2ccccc2)c2ccccc2)c1` (centres unmarked) [II-27], the Solubility entry in data set [1] was “A (the solubility in water at 23 °C was 0.1 mass % or lower)”. In data set [2], the “λmax (nm) of Second Near Infrared Absorbing Compound” value turned out to be 743 nm, the “Absorbance Ratio (500 nm/λmax)” value was “A (the absorbance ratio (500 nm/λmax) was 0.04 or lower)” and the “Absorption Maximum (nm)” value came out at 743 nm.

(Values after patent publication US10947389B2, “Composition, film, near infrared cut filter, laminate, pattern forming method, solid image pickup element, image display device, infrared sensor, and color filter” (FUJIFILM Corporation, priority 2016, dated 2021).)
